Results from patent publication US11419852B2, “Beta-lactam compounds or salts thereof for use in long-acting prevention or treatment of a glucose metabolism disorder” (GLYCOLYSIS BIOMED CO., LTD., priority 2019, dated 2022).
Marks after values point to notes of the source that are not given here.

Tests used:
db/db mice = test: Oral glucose tolerance test (OGTT); format: in vivo; design: OGTT AUC: unit not given here
Description: Four to five weeks old db/db mice (BKS.Cg-Dock7^m+/+Lepr^db/JNarl) and m/m mice (BKS.Cg-Dock7^m+/Dock7^m+) were obtained from National Laboratory Animal Center ([…], Taiwan). […] PMI Nutrition International, Brentwood, Mo.) and water ad libitum. […] Blood was sampled from the tail vein, and FPG levels were measured and recorded as the basic blood glucose levels. […] The total area under the curve (AUC) in OGTT was plotted and calculated by the Area Under Coordinates Program (StatsToDo Server, Department of Obstetrics and Gynecology, Chinese University of Hong Kong).

[1] = Food and water intake of mice; format: in vivo
Description: Four to five weeks old db/db mice (BKS.Cg-Dock7^m+/+Lepr^db/JNarl) and m/m mice (BKS.Cg-Dock7^m+/Dock7^m+) were obtained from National Laboratory Animal Center ([…], Taiwan). […] PMI Nutrition International, Brentwood, Mo.) and water ad libitum. […] The mouse body weight (bw) and the amounts of water and food intake were recorded weekly for the entire study period.

[2] = Ex 1: db/db mice, ertapenem i.p. 0.41 mg/g bw/day, 3 weeks
[3] = Ex 3: db/db mice, daily dosing 3 weeks at doses of Table 10

## C[C@@H](O)[C@H]1C(=O)N2C(C(=O)O)=C(S[C@@H]3CN[C@H](C(=O)Nc4cccc(C(=O)O)c4)C3)[C@H](C)[C@H]12 [DMH, ertapenem]
db/db mice; Ex 2 G5 db/db, DMH i.p. 0.2 mg/g bw/day, dosing 6 weeks, Week 12, 60 min
  Level of OGTT (blood glucose): 548 ± 69 mg/dL
db/db mice; Ex 2 G5 db/db, DMH i.p. 0.2 mg/g bw/day, dosing 6 weeks, Week 12, 120 min
  Level of OGTT (blood glucose): 440 ± 81^bc
db/db mice; Ex 2 G5 db/db, DMH i.p. 0.2 mg/g bw/day, dosing 6 weeks, Week 16, 0 min
  Level of OGTT (blood glucose): 154 ± 56^ab
db/db mice; Ex 2 G5 db/db, DMH i.p. 0.2 mg/g bw/day, dosing 6 weeks, Week 16, 15 min
  Level of OGTT (blood glucose): 619 ± 48 mg/dL
db/db mice; Ex 2 G5 db/db, DMH i.p. 0.2 mg/g bw/day, dosing 6 weeks, Week 16, 30 min
  Level of OGTT (blood glucose): 686 ± 34^bc
db/db mice; Ex 2 G5 db/db, DMH i.p. 0.2 mg/g bw/day, dosing 6 weeks, Week 16, 60 min
  Level of OGTT (blood glucose): 551 ± 52^bc
db/db mice; Ex 2 G5 db/db, DMH i.p. 0.2 mg/g bw/day, dosing 6 weeks, Week 16, 120 min
  Level of OGTT (blood glucose): 314 ± 54^bc
db/db mice; Ex 2 G5 db/db, DMH i.p. 0.2 mg/g bw/day, dosing 6 weeks, Week 18, 0 min
  Level of OGTT (blood glucose): 308 ± 51 mg/dL
db/db mice; Ex 2 G5 db/db, DMH i.p. 0.2 mg/g bw/day, dosing 6 weeks, Week 18, 15 min
  Level of OGTT (blood glucose): 943 ± 43 mg/dL
db/db mice; Ex 2 G5 db/db, DMH i.p. 0.2 mg/g bw/day, dosing 6 weeks, Week 18, 30 min
  Level of OGTT (blood glucose): 941 ± 53 mg/dL
db/db mice; Ex 2 G5 db/db, DMH i.p. 0.2 mg/g bw/day, dosing 6 weeks, Week 18, 60 min
  Level of OGTT (blood glucose): 753 ± 70 mg/dL
db/db mice; Ex 2 G5 db/db, DMH i.p. 0.2 mg/g bw/day, dosing 6 weeks, Week 18, 120 min
  Level of OGTT (blood glucose): 541 ± 63^bc
db/db mice; Ex 2 G5 db/db, DMH i.p. 0.2 mg/g bw/day, dosing 6 weeks, week 6
  OGTT AUC: 916 ± 110^b
db/db mice; Ex 2 G5 db/db, DMH i.p. 0.2 mg/g bw/day, dosing 6 weeks, week 12
  OGTT AUC: 1171 ± 117^bc
db/db mice; Ex 2 G5 db/db, DMH i.p. 0.2 mg/g bw/day, dosing 6 weeks, week 16
  OGTT AUC: 1002 ± 88^bc
db/db mice; Ex 2 G5 db/db, DMH i.p. 0.2 mg/g bw/day, dosing 6 weeks, week 18
  OGTT AUC: 1462 ± 104^b
db/db mice; Ex 2 G6 db/db, DMH i.p. 0.4 mg/g bw/day, dosing 6 weeks, Week 6, 0 min
  Level of OGTT (blood glucose): 175 ± 30 mg/dL
db/db mice; Ex 2 G6 db/db, DMH i.p. 0.4 mg/g bw/day, dosing 6 weeks, Week 6, 15 min
  Level of OGTT (blood glucose): 747 ± 38 mg/dL
db/db mice; Ex 2 G6 db/db, DMH i.p. 0.4 mg/g bw/day, dosing 6 weeks, Week 6, 30 min
  Level of OGTT (blood glucose): 669 ± 69 mg/dL
db/db mice; Ex 2 G6 db/db, DMH i.p. 0.4 mg/g bw/day, dosing 6 weeks, Week 6, 60 min
  Level of OGTT (blood glucose): 418 ± 56 mg/dL
db/db mice; Ex 2 G6 db/db, DMH i.p. 0.4 mg/g bw/day, dosing 6 weeks, Week 6, 120 min
  Level of OGTT (blood glucose): 223 ± 27^ab
db/db mice; Ex 2 G6 db/db, DMH i.p. 0.4 mg/g bw/day, dosing 6 weeks, Week 12, 0 min
  Level of OGTT (blood glucose): 166 ± 26^ac
db/db mice; Ex 2 G6 db/db, DMH i.p. 0.4 mg/g bw/day, dosing 6 weeks, Week 12, 15 min
  Level of OGTT (blood glucose): 859 ± 50 mg/dL
db/db mice; Ex 2 G6 db/db, DMH i.p. 0.4 mg/g bw/day, dosing 6 weeks, Week 12, 30 min
  Level of OGTT (blood glucose): 698 ± 65 mg/dL
db/db mice; Ex 2 G6 db/db, DMH i.p. 0.4 mg/g bw/day, dosing 6 weeks, Week 12, 60 min
  Level of OGTT (blood glucose): 489 ± 55 mg/dL
db/db mice; Ex 2 G6 db/db, DMH i.p. 0.4 mg/g bw/day, dosing 6 weeks, Week 12, 120 min
  Level of OGTT (blood glucose): 324 ± 47 mg/dL
db/db mice; Ex 2 G6 db/db, DMH i.p. 0.4 mg/g bw/day, dosing 6 weeks, Week 16, 0 min
  Level of OGTT (blood glucose): 108 ± 22^ab
db/db mice; Ex 2 G6 db/db, DMH i.p. 0.4 mg/g bw/day, dosing 6 weeks, Week 16, 15 min
  Level of OGTT (blood glucose): 543 ± 57 mg/dL
db/db mice; Ex 2 G6 db/db, DMH i.p. 0.4 mg/g bw/day, dosing 6 weeks, Week 16, 30 min
  Level of OGTT (blood glucose): 650 ± 29^bc
db/db mice; Ex 2 G6 db/db, DMH i.p. 0.4 mg/g bw/day, dosing 6 weeks, Week 16, 60 min
  Level of OGTT (blood glucose): 535 ± 43^bc
db/db mice; Ex 2 G6 db/db, DMH i.p. 0.4 mg/g bw/day, dosing 6 weeks, Week 16, 120 min
  Level of OGTT (blood glucose): 244 ± 35^ab
db/db mice; Ex 2 G6 db/db, DMH i.p. 0.4 mg/g bw/day, dosing 6 weeks, Week 18, 0 min
  Level of OGTT (blood glucose): 266 ± 35 mg/dL
db/db mice; Ex 2 G6 db/db, DMH i.p. 0.4 mg/g bw/day, dosing 6 weeks, Week 18, 15 min
  Level of OGTT (blood glucose): 872 ± 46 mg/dL
db/db mice; Ex 2 G6 db/db, DMH i.p. 0.4 mg/g bw/day, dosing 6 weeks, Week 18, 30 min
  Level of OGTT (blood glucose): 860 ± 58 mg/dL
db/db mice; Ex 2 G6 db/db, DMH i.p. 0.4 mg/g bw/day, dosing 6 weeks, Week 18, 60 min
  Level of OGTT (blood glucose): 637 ± 64 mg/dL
db/db mice; Ex 2 G6 db/db, DMH i.p. 0.4 mg/g bw/day, dosing 6 weeks, Week 18, 120 min
  Level of OGTT (blood glucose): 480 ± 73 mg/dL
db/db mice; Ex 2 G6 db/db, DMH i.p. 0.4 mg/g bw/day, dosing 6 weeks, week 6
  OGTT AUC: 884 ± 84^b
db/db mice; Ex 2 G6 db/db, DMH i.p. 0.4 mg/g bw/day, dosing 6 weeks, week 12
  OGTT AUC: 1026 ± 94^b
db/db mice; Ex 2 G6 db/db, DMH i.p. 0.4 mg/g bw/day, dosing 6 weeks, week 16
  OGTT AUC: 916 ± 68^b
db/db mice; Ex 2 G6 db/db, DMH i.p. 0.4 mg/g bw/day, dosing 6 weeks, week 18
  OGTT AUC: 1291 ± 118^b
db/db mice; Ex 3, medications stopped for at least 3 weeks (FIG. 6A, 6B)
  Regulation of blood glucose homeostasis (OGTT glucose vs G8): still effective
db/db mice; Ex 3: db/db mice, daily dosing 3 weeks at doses of Table 10, Week 6 (stopped for 3 weeks)
  OGTT AUC: 1263 ± 135^b
db/db mice; Ex 3: db/db mice, daily dosing 3 weeks at doses of Table 10, Week 9 (stopped for 6 weeks)
  OGTT AUC: 1356 ± 149^bc
[1]; Ex 1: db/db mice, 0.41 mg/g bw/day i.p., entire study period, P<0.05
  Food and water intake vs DB group: reduced
[1]; [2]
  Diet intake: 5.0 ± 0.9 g/mice/day
  Water intake: 6.8 ± 1.6 mL/mice/day
[1]; Ex 3, P<0.05
  Food intake in db/db mice: significantly reduced
  Water intake in db/db mice: significantly reduced
[1]; [3]
  Diet intake: 5.2 ± 1^b g/mice/day
  Water intake: 8.4 ± 1^c mL/mice/day
